From PubChem BioAssay (NCI)
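48-hour exposure; five concentrations; linearly interpolated endpoints. GI50: concentration for 50% inhibition of growth. Definition used: TGI = concentration required for complete inhibition of growth.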

Columns and labels:
Assay in all cases: NCI anticancer screen, dose series, 48 h
786-0 renal = tested on: 786-0 renal
A498 renal = tested on: A498 renal
A549 NSCLC = tested on: A549 NSCLC
ACHN renal = tested on: ACHN renal
BT-549 breast = tested on: BT-549 breast
CAKI-1 renal = tested on: CAKI-1 renal
CCRF-CEM leukemia = tested on: CCRF-CEM leukemia
COLO 205 colon = tested on: COLO 205 colon
DU-145 prostate = tested on: DU-145 prostate
EKVX NSCLC = tested on: EKVX NSCLC
HCC-2998 colon = tested on: HCC-2998 colon
HCT-116 colon = tested on: HCT-116 colon
HCT-15 colon = tested on: HCT-15 colon
HL-60(TB) leukemia = tested on: HL-60(TB) leukemia
HOP-62 NSCLC = tested on: HOP-62 NSCLC
HOP-92 NSCLC = tested on: HOP-92 NSCLC
HS 578T breast = tested on: HS 578T breast
HT29 colon = tested on: HT29 colon
IGROV1 ovarian = tested on: IGROV1 ovarian
K-562 leukemia = tested on: K-562 leukemia
KM12 colon = tested on: KM12 colon
LOX IMVI melanoma = tested on: LOX IMVI melanoma
M14 melanoma = tested on: M14 melanoma
MALME-3M melanoma = tested on: MALME-3M melanoma
MCF7 breast = tested on: MCF7 breast
MDA-MB-231 breast = tested on: MDA-MB-231 breast
MDA-MB-435 = tested on: MDA-MB-435
MDA-N = tested on: MDA-N
MOLT-4 leukemia = tested on: MOLT-4 leukemia
NCI-H226 lung = tested on: NCI-H226 lung
NCI-H23 lung = tested on: NCI-H23 lung
NCI-H460 lung = tested on: NCI-H460 lung
NCI-H522 lung = tested on: NCI-H522 lung
NCI/ADR-RES ovarian = tested on: NCI/ADR-RES ovarian
OVCAR-3 ovarian = tested on: OVCAR-3 ovarian
OVCAR-4 ovarian = tested on: OVCAR-4 ovarian
OVCAR-5 ovarian = tested on: OVCAR-5 ovarian
OVCAR-8 ovarian = tested on: OVCAR-8 ovarian
PC-3 prostate = tested on: PC-3 prostate
RPMI-8226 leukemia = tested on: RPMI-8226 leukemia
RXF 393 renal = tested on: RXF 393 renal
SF-268 CNS = tested on: SF-268 CNS
SF-295 CNS = tested on: SF-295 CNS
SF-539 CNS = tested on: SF-539 CNS
SK-MEL-2 melanoma = tested on: SK-MEL-2 melanoma
SK-MEL-28 melanoma = tested on: SK-MEL-28 melanoma
SK-MEL-5 melanoma = tested on: SK-MEL-5 melanoma
SK-OV-3 ovarian = tested on: SK-OV-3 ovarian
SN12C renal = tested on: SN12C renal
SNB-19 CNS = tested on: SNB-19 CNS
SNB-75 CNS = tested on: SNB-75 CNS
SR leukemia = tested on: SR leukemia
SW-620 colon = tested on: SW-620 colon
T-47D breast = tested on: T-47D breast
TK-10 renal = tested on: TK-10 renal
U251 CNS = tested on: U251 CNS
UACC-257 melanoma = tested on: UACC-257 melanoma
UACC-62 melanoma = tested on: UACC-62 melanoma
UO-31 renal = tested on: UO-31 renal

N#C/C(=C/NC(=S)NCc1ccccc1)C(N)=O
TGI (786-0 renal): > 100 µM | TGI (A498 renal): > 100 µM | TGI (A549 NSCLC): > 100 µM | TGI (ACHN renal): > 100 µM | GI50 (BT-549 breast): > 100 µM | TGI (BT-549 breast): > 100 µM | TGI (CAKI-1 renal): > 100 µM | TGI (CCRF-CEM leukemia): > 100 µM | TGI (COLO 205 colon): > 100 µM | TGI (DU-145 prostate): > 100 µM | TGI (EKVX NSCLC): > 100 µM | TGI (HCC-2998 colon): > 100 µM | TGI (HCT-116 colon): > 100 µM | TGI (HCT-15 colon): > 100 µM | TGI (HL-60(TB) leukemia): > 100 µM | TGI (HOP-62 NSCLC): > 100 µM | TGI (HOP-92 NSCLC): > 100 µM | TGI (HS 578T breast): > 100 µM | TGI (HT29 colon): > 100 µM | TGI (IGROV1 ovarian): > 100 µM | TGI (K-562 leukemia): > 100 µM | TGI (KM12 colon): > 100 µM | TGI (LOX IMVI melanoma): > 100 µM | TGI (M14 melanoma): > 100 µM | TGI (MALME-3M melanoma): > 100 µM | TGI (MCF7 breast): > 100 µM | TGI (MDA-MB-231 breast): > 100 µM | TGI (MDA-MB-435): > 100 µM | TGI (MDA-N): > 100 µM | TGI (MOLT-4 leukemia): > 100 µM | TGI (NCI-H226 lung): > 100 µM | TGI (NCI-H23 lung): > 100 µM | TGI (NCI-H460 lung): > 100 µM | TGI (NCI-H522 lung): > 100 µM | TGI (NCI/ADR-RES ovarian): > 100 µM | TGI (OVCAR-3 ovarian): > 86.1 µM | TGI (OVCAR-4 ovarian): > 100 µM | TGI (OVCAR-5 ovarian): > 100 µM | TGI (OVCAR-8 ovarian): > 100 µM | TGI (PC-3 prostate): > 100 µM | TGI (RPMI-8226 leukemia): > 100 µM | TGI (RXF 393 renal): > 100 µM | TGI (SF-268 CNS): > 100 µM | TGI (SF-295 CNS): > 100 µM | TGI (SF-539 CNS): > 100 µM | TGI (SK-MEL-2 melanoma): > 100 µM | TGI (SK-MEL-28 melanoma): > 100 µM | TGI (SK-MEL-5 melanoma): > 100 µM | TGI (SK-OV-3 ovarian): > 100 µM | TGI (SN12C renal): > 100 µM | TGI (SNB-19 CNS): > 100 µM | TGI (SNB-75 CNS): > 100 µM | TGI (SR leukemia): > 100 µM | TGI (SW-620 colon): > 100 µM | TGI (T-47D breast): > 100 µM | GI50 (TK-10 renal): > 100 µM | TGI (TK-10 renal): > 100 µM | TGI (U251 CNS): > 100 µM | TGI (UACC-257 melanoma): > 100 µM | TGI (UACC-62 melanoma): > 100 µM | TGI (UO-31 renal): > 100 µM

O=C1C(N2CCOCC2)=C(Cl)C(=O)c2ncccc21
TGI (786-0 renal): 3.24 µM | TGI (A498 renal): > 10 µM | TGI (A549 NSCLC): > 10 µM | TGI (ACHN renal): 3.49 µM | TGI (BT-549 breast): > 10 µM | TGI (CAKI-1 renal): > 10 µM | TGI (CCRF-CEM leukemia): 2.16 µM | TGI (COLO 205 colon): 3.91 µM | TGI (DU-145 prostate): > 10 µM | TGI (EKVX NSCLC): > 10 µM | TGI (HCC-2998 colon): > 9.5 µM | TGI (HCT-116 colon): 3.1 µM | TGI (HCT-15 colon): 4.11 µM | TGI (HL-60(TB) leukemia): 0.534 µM | TGI (HOP-62 NSCLC): > 10 µM | TGI (HOP-92 NSCLC): 2.84 µM | TGI (HS 578T breast): > 10 µM | TGI (HT29 colon): > 10 µM | TGI (IGROV1 ovarian): > 10 µM | TGI (K-562 leukemia): 5.03 µM | TGI (KM12 colon): > 5.35 µM | TGI (LOX IMVI melanoma): 4.92 µM | TGI (M14 melanoma): 4.97 µM | TGI (MALME-3M melanoma): 3.45 µM | TGI (MCF7 breast): 3.59 µM | TGI (MDA-MB-231 breast): 5.24 µM | TGI (MDA-MB-435): 3.22 µM | TGI (MDA-N): 3.48 µM | TGI (MOLT-4 leukemia): 3.19 µM | TGI (NCI-H226 lung): > 10 µM | TGI (NCI-H23 lung): 3.55 µM | TGI (NCI-H460 lung): > 10 µM | TGI (NCI-H522 lung): 2.85 µM | TGI (NCI/ADR-RES ovarian): > 10 µM | TGI (OVCAR-3 ovarian): 3.39 µM | TGI (OVCAR-4 ovarian): 2.89 µM | TGI (OVCAR-5 ovarian): > 10 µM | TGI (OVCAR-8 ovarian): > 5.73 µM | TGI (PC-3 prostate): > 10 µM | TGI (RPMI-8226 leukemia): 4.34 µM | TGI (RXF 393 renal): 2.91 µM | TGI (SF-268 CNS): > 7.37 µM | TGI (SF-295 CNS): > 10 µM | TGI (SF-539 CNS): > 10 µM | TGI (SK-MEL-2 melanoma): 3.77 µM | TGI (SK-MEL-28 melanoma): 4.67 µM | TGI (SK-MEL-5 melanoma): 3.26 µM | TGI (SK-OV-3 ovarian): > 10 µM | TGI (SN12C renal): 3.15 µM | TGI (SNB-19 CNS): > 10 µM | TGI (SNB-75 CNS): > 10 µM | TGI (SR leukemia): 2.2 µM | TGI (SW-620 colon): 3.72 µM | TGI (T-47D breast): 3.92 µM | TGI (TK-10 renal): 4.71 µM | TGI (U251 CNS): > 10 µM | TGI (UACC-257 melanoma): 3.52 µM | TGI (UACC-62 melanoma): 5.51 µM | TGI (UO-31 renal): > 5.86 µM
